Consider ten compounds from ChEMBL document CHEMBL3407452, “Linear and branched alkyl-esters and amides of gallic acid and other (mono-, di- and tri-) hydroxy benzoyl derivatives as promising anti-HCV inhibitors” (Eur J Med Chem, 2015).

The structures appear in SMILES notation. The source made the active and inactive calls. No cut-off for these calls is given here.

One data set deals with Influenza A virus H3N2. The data set is described as follows: Antiviral activity against influenza A virus H3N2. The data set is classed as functional, organism-based.
Data set [1] deals with Vesicular stomatitis virus. The data set is described as follows: Antiviral activity against vesicular stomatitis virus. The data set is classed as functional, organism-based.
The nature of data set [2]: Cytotoxicity against human Huh5-2 cells after 72 hrs by MTS assay. The data set is classed as cell-based, Huh-5-2. For orientation: Tetrazolium assays rely on reduction of a dye to a coloured formazan, in cell work by metabolically active cells.
Data set [3] deals with Respiratory syncytial virus. The data set is described as follows: Antiviral activity against RSV. In kind it is functional, organism-based.
The test system of the next data set is Punta Toro virus. The data set can be described thus: Antiviral activity against punta toro virus. In kind it is functional, organism-based.
The next data set concerns Feline coronavirus. The data set can be described thus: Antiviral activity against feline coronavirus. The data set is classed as functional, organism-based.
The subject of another data set is Chikungunya virus. The data set can be described thus: Antiviral activity against chikungunya virus. In kind it is functional.
Another data set deals with Felid alphaherpesvirus 1. The data set is described as follows: Antiviral activity against feline herpesvirus. The data set is classed as functional, organism-based.
For the next data set, the system named is Influenza A virus. The data set is described as follows: Antiviral activity against influenza A virus (H1N1). The data set is classed as functional, organism-based.
In a further data set the test system is Vaccinia virus. The data set can be described thus: Antiviral activity against vaccinia virus. The data set is classed as functional, organism-based. Conditions: Orthopoxvirus vaccinia.
For the next data set, the system named is Coxsackievirus B4. The data set is described as follows: Antiviral activity against human coxsackievirus B4. In kind it is functional, organism-based.
Data set [4] deals with Human immunodeficiency virus 1. The data set can be described thus: Antiviral activity against HIV1 3B infected in human CEM cells assessed as reduction in virus-induced cytopathicity after 4 to 5 days by microscopy based syncytium cell formation assay. In kind it is functional, organism-based, CCRF-CEM. Conditions: Human immunodeficiency virus 1, 3B, CCRF-CEM; read-out: EC50.

The test system of another data set is Human respirovirus 3. The data set can be described thus: Antiviral activity against human parainfluenza virus 3. In kind it is functional, organism-based.
The next data set concerns Hepatitis C virus. The data set is described as follows: Antiviral activity against HCV genotype 1b I389luc-ubi-neo/NS3-3'/5.1 replicons infected in human Huh5-2 HCV subgenomic replicon-containing cells assessed as reduction in virus replication after 3 days by luciferase reporter gene assay. In kind it is functional, Hepacivirus hominis. The following applies: Hepatitis C virus, genotype 1b, Huh-5-2, 72 h; for EC50: read-out: EC50. Background: Replicon systems follow genome replication, usually without infectious particles.

A short description of data set [5]: Cytotoxicity against human CEM cells assessed as inhibition of cell proliferation. Conditions: CEM cells (CCRF-CEM). The data set is classed as cell-based.
The next data set has as its system Sindbis virus. The data set is described as follows: Antiviral activity against sindbis virus. The data set is classed as functional, organism-based.
Data set [6] has as its system Human immunodeficiency virus 2. The data set can be described thus: Antiviral activity against HIV2 ROD infected in human CEM cells assessed as reduction in virus-induced cytopathicity after 4 to 5 days by microscopy based syncytium cell formation assay. The data set is classed as functional, organism-based, ISOLATE ROD, CCRF-CEM. The following applies: Human immunodeficiency virus 2, ISOLATE ROD, CCRF-CEM; read-out: EC50. A general note: Damage to the host cells serves as the signal in cytopathic effect assays.

Another data set deals with Reovirus sp. The data set is described as follows: Antiviral activity against reovirus. The data set is classed as functional, organism-based.

Consider `O=C(NCCCCNC(=O)c1cc(O)c(O)c(O)c1)c1cc(O)c(O)c(O)c1`, for which the result (in the data set with Influenza A virus H3N2; in [1]; in data set [3]; with Punta Toro virus; in the data set on Feline coronavirus; with Chikungunya virus) was inactive. Further, the result in the data set on Felid alphaherpesvirus 1, in the data set with Influenza A virus, in the data set on Vaccinia virus, in the data set on Coxsackievirus B4, with Human respirovirus 3 and with Sindbis virus was inactive. In addition, the outcome with Reovirus sp. was inactive. Besides, in data set [2], the CC50 (as a rule, the concentration at which the toxic effect on the cells reaches its halfway point) at 72 h worked out at 29 µM. For the same compound, the EC50 (commonly the concentration that produces a half-maximal response) in data set [4] was 5.2 µM; in the data set on Hepatitis C virus, 18 µM; in data set [6], > 10 µM. Further, in the data set with Hepatitis C virus, the EC90 (usually the point of the concentration-response curve where the effect stands at 90%) is > 29 µM. The CC50 in data set [5] stood at 23 µM.

On to `O=C(NCCCCNC(=O)c1ccc(O)c(O)c1O)c1ccc(O)c(O)c1O`, for which the result (in the data set on Influenza A virus H3N2; in data set [1]; in data set [3]; with Punta Toro virus; with Feline coronavirus; with Chikungunya virus) was inactive. In addition, the outcome in the data set with Felid alphaherpesvirus 1, in the data set on Influenza A virus, in the data set on Vaccinia virus, in the data set with Coxsackievirus B4, with Human respirovirus 3 and with Sindbis virus was inactive. In the data set on Reovirus sp., the result was inactive. The CC50 at 72 h in data set [2] was > 50 µM. Also, the EC50 in [4] is > 10 µM; with Hepatitis C virus it was 15 µM; in data set [6], > 10 µM. Moreover, the EC90 in the data set on Hepatitis C virus was > 50 µM. In addition, in data set [5], the CC50 worked out at 109 µM.

Turning to `O=C(NCCCCCCCCCCNC(=O)c1cc(O)c(O)c(O)c1)c1cc(O)c(O)c(O)c1`, the outcome (in the data set on Influenza A virus H3N2; in data set [1]; in data set [3]; in the data set with Punta Toro virus; with Feline coronavirus; in the data set on Chikungunya virus) was inactive. Besides, the outcome in the data set with Felid alphaherpesvirus 1, in the data set with Influenza A virus, with Vaccinia virus, in the data set on Coxsackievirus B4, in the data set with Human respirovirus 3 and in the data set on Sindbis virus was inactive. Besides, in the data set on Reovirus sp., the outcome was inactive. For the same compound, the midpoint of cytotoxicity in [2], the CC50 at 72 h, lay at 47 µM. Also, the EC50 in data set [4] is > 50 µM; in the data set with Hepatitis C virus it was 20 µM; in [6], > 50 µM. In addition, the CC50 in data set [5] is 86 µM.

For the compound `O=C(OCCCCCCCCOC(=O)c1cc(O)c(O)c(O)c1)c1cc(O)c(O)c(O)c1`, the outcome (in the data set with Influenza A virus H3N2; in data set [1]; in data set [3]; with Punta Toro virus; in the data set on Feline coronavirus; in the data set on Chikungunya virus) was inactive. The outcome in the data set on Felid alphaherpesvirus 1, in the data set with Influenza A virus, in the data set with Vaccinia virus, in the data set on Coxsackievirus B4, in the data set with Human respirovirus 3 and in the data set on Sindbis virus was inactive. In addition, the outcome with Reovirus sp. was inactive. This compound also had a CC50 at 72 h in data set [2] of 80 µM. The EC50 is > 10 µM in data set [4], 17 µM with Hepatitis C virus and > 10 µM in [6]. The EC90 with Hepatitis C virus is 55 µM. For the same compound, in data set [5], the CC50 amounted to 13 µM.

On to `CCCCCCOC(=O)c1cc(O)c(O)c(O)c1` [HEXYL GALLATE], for which the outcome (in the data set on Influenza A virus H3N2; in data set [1]; in data set [3]; in the data set on Punta Toro virus; with Feline coronavirus; in the data set with Chikungunya virus) was inactive. Moreover, the result with Felid alphaherpesvirus 1, in the data set on Influenza A virus, with Vaccinia virus, in the data set on Coxsackievirus B4, in the data set with Human respirovirus 3 and in the data set with Sindbis virus was inactive. Besides, the outcome in the data set with Reovirus sp. was inactive. Moreover, in data set [2], the CC50 at 72 h is > 50 µM. The EC50 in data set [4] was found to be 5.4 µM; with Hepatitis C virus, 9 µM; in data set [6] it was 6.6 µM. In addition, in the data set on Hepatitis C virus, the EC90 was > 50 µM. In addition, in [5], the half-maximal cytotoxic concentration (CC50) turned out to be 14 µM.

Regarding `CCOC(=O)c1cc(O)c(O)c(O)c1` [ETHYLGALLATE], the outcome (in the data set with Influenza A virus H3N2; in data set [1]; in data set [3]; in the data set on Punta Toro virus; in the data set with Feline coronavirus; in the data set with Chikungunya virus) was inactive. For the same compound, the result with Felid alphaherpesvirus 1, in the data set on Influenza A virus, with Vaccinia virus, in the data set with Coxsackievirus B4, in the data set with Human respirovirus 3 and with Sindbis virus was inactive. Further, the result in the data set on Reovirus sp. was inactive. In [2], this compound returned a CC50 at 72 h of 45 µM. Further, the EC50 in [4] was > 10 µM; in the data set on Hepatitis C virus, 19 µM; in data set [6], > 10 µM. For the same compound, in the data set on Hepatitis C virus, the EC90 was > 45 µM. Also, the CC50 in [5] worked out at 23 µM.

As to `O=C(OCCCCOC(=O)c1cc(O)c(O)c(O)c1)c1cc(O)c(O)c(O)c1`, the outcome (in the data set with Influenza A virus H3N2; in data set [1]; in data set [3]; with Punta Toro virus; in the data set on Feline coronavirus; in the data set on Chikungunya virus) was inactive. Moreover, the outcome with Felid alphaherpesvirus 1, with Influenza A virus, with Vaccinia virus, in the data set on Coxsackievirus B4, with Human respirovirus 3 and in the data set with Sindbis virus was inactive. The outcome in the data set on Reovirus sp. was inactive. In [2], the CC50 at 72 h is > 50 µM. For the same compound, the EC50 was > 10 µM in data set [4], 39 µM in the data set on Hepatitis C virus and > 10 µM in data set [6]. For the same compound, the EC90 in the data set with Hepatitis C virus was > 50 µM. In addition, the CC50 in data set [5] came to 21 µM.

`CCCCCOC(=O)c1cc(O)c(O)c(O)c1` [PENTYL GALLATE]: the outcome (in the data set on Influenza A virus H3N2; in [1]; in data set [3]; with Punta Toro virus; in the data set on Feline coronavirus; in the data set on Chikungunya virus) was inactive. The result in the data set with Felid alphaherpesvirus 1, in the data set with Influenza A virus, with Vaccinia virus, with Coxsackievirus B4, with Human respirovirus 3 and with Sindbis virus was inactive. For the same compound, in the data set on Reovirus sp., the result was inactive. The CC50 at 72 h in [2] was > 50 µM. For the same compound, the EC50 in [4] is 14 µM; in the data set with Hepatitis C virus, 14 µM; in data set [6], ≥ 10 µM. Moreover, the EC90 with Hepatitis C virus was > 50 µM. In addition, the CC50 in data set [5] was found to be 47 µM.

As for `O=C(NCCCCCCCCCCCCNC(=O)c1ccccc1O)c1ccccc1O`, the outcome (in the data set on Influenza A virus H3N2; in [1]; in [3]; in the data set on Punta Toro virus; with Feline coronavirus; in the data set on Chikungunya virus) was inactive. The result in the data set with Felid alphaherpesvirus 1, in the data set with Influenza A virus, in the data set with Vaccinia virus, with Coxsackievirus B4, in the data set on Human respirovirus 3 and in the data set on Sindbis virus was inactive. For the same compound, in the data set on Reovirus sp., the result was inactive. Moreover, in data set [2], the CC50 at 72 h is > 6.7 µM. For the same compound, the values for the EC50 (in data set [4]; with Hepatitis C virus; in [6]) were > 250 µM, 4.7 µM and > 250 µM, respectively. Further, the EC90 with Hepatitis C virus was > 6.7 µM. Further, the CC50 in [5] came out at 248 µM.

Regarding `O=C(NCCCCCCNC(=O)c1ccc(O)c(O)c1O)c1ccc(O)c(O)c1O`, the outcome (in the data set on Influenza A virus H3N2; in data set [1]; in [3]; with Punta Toro virus; in the data set with Feline coronavirus; in the data set on Chikungunya virus) was inactive. Also, the outcome with Felid alphaherpesvirus 1, in the data set with Influenza A virus, in the data set with Vaccinia virus, with Coxsackievirus B4, in the data set with Human respirovirus 3 and in the data set with Sindbis virus was inactive. In addition, the result in the data set with Reovirus sp. was inactive. In addition, it took 32 µM to reach half-maximal cytotoxicity in data set [2] (CC50 at 72 h). Moreover, the figures for the EC50 (in [4]; in the data set with Hepatitis C virus; in data set [6]) were > 50 µM, 14 µM and > 50 µM, respectively. In addition, in data set [5], the CC50 was found to be 102 µM.
